Measurements: patent publication US20260217692A1 (Ascentage Pharma (Suzhou) Co., Ltd., priority 2023, published 2026)
Where “and” joins values, the source holds several entries; their conditions need not be identical. Identical values can stand only once.

How the values were obtained:
preclinical tumor model = preclinical tumor model studies; cited from earlier work
[1] = in vivo; cited from earlier work
[2] = test system: EGFRT790M-mutant NSCLC xenograft tumor models; conditions: cited from earlier work
[3] = test system: multiple xenograft tumor models; conditions: cited from earlier work
[4] = Dynamic vapor sorption (DVS) hygroscopicity test; assay type: physicochemical; conditions: 25° C. and 80% RH
Excerpt: In the present disclosure, the DVS test parameters are set as follows: [table]

[5] = Polymorph screening test, suspension method (crystal form by XRPD after stirring in solvent); assay type: physicochemical
Description: (or 50° C.) for 3 days in the dark and centrifuged to remove the supernatant; the resulting precipitate was dried under vacuum (25° C., −0.1 MPa); and the resulting solid was collected and subjected to the XRPD test. The results are as follows:
(or 50° C./80° C.) for 3 days in the dark and centrifuged to remove the supernatant; and the resulting precipitate was dried under vacuum (25° C., −0.1 MPa).
(or 50° C.) for 3 days in the dark and centrifuged to remove the supernatant; and the resulting precipitate was dried under vacuum (25° C., −0.1 MPa).

[6] = Stability of crystal forms under stability test conditions (appearance, XRPD, HPLC); assay type: physicochemical; conditions: for Total impurities: HPLC
Description: The samples were placed under the stability conditions shown in the following table, sampling was performed at the corresponding time points, and the samples were subjected to appearance and XRPD tests. […] The stability results obtained are recorded in the following table. […] The samples were placed under the stability test conditions shown in the following table, sampling was performed at different time points, and the samples were subjected to the XRPD test. […] The samples were placed in an open state under the stability test conditions of 40° C./75% RH and 90% RH; and the samples were placed in a closed state at 60° C. in a light box (the test samples in the dark were placed in the same manner as the illumination test samples, and the treatment was performed in the dark). Sampling was performed at different time points, and the samples were subjected to the XRPD test. […] The samples were placed under the stability conditions shown in the following table, sampling was performed at the corresponding time points, and the samples were subjected to appearance and XRPD tests. […] The stability results obtained are recorded in the following table.

[7] = Solubility in biological media at 37° C. (HPLC, pH)
[8] = XRPD of residual solids in solubility test in biological media; assay type: physicochemical; conditions: Water; 37° C.

Cc1cc(Nc2ncc(Cl)c(Nc3ccccc3S(=O)(=O)C(C)C)n2)c(OC(C)C)cc1C1=CCN(C2CCOCC2)CC1 [APG-2449]
resistance developed by the first-generation ALK inhibitor (preclinical tumor model): can overcome resistance
oral bioavailability [1]: high oral bioavailability
effect in combination with EGFR inhibitors (particularly AZD9291/osimertinib) [2]: synergistic effect
anti-tumor activity [3]: exhibits anti-tumor activity

Cc1cc(Nc2ncc(Cl)c(Nc3ccccc3S(=O)(=O)C(C)C)n2)c(OC(C)C)cc1C1=CCN(C2CCOCC2)CC1 [one equivalent of succinate crystal form D]
hygroscopic weight gain (DVS curve) [4]: 0.19±0.005% and 0.19%
stability of crystal form in solvents, succinate polymorph screening test ([5]; in solvents): relatively good stability
crystal form when stirred in solvent ([5]; methanol, ethanol, acetonitrile, acetone, ethyl acetate, dichloromethane, water, n-heptane, dioxane, or mixed solvent of methanol, acetonitrile, or acetone with water, 40° C.): remained stable
Total impurities ([6]; 0 d): 0.73%
Total impurities ([6]; 40° C./75% RH, 1 M): 0.74%
Total impurities ([6]; 40° C./75% RH, 10 d): 0.74%
Total impurities ([6]; 60° C., 1 M): 0.71%
Total impurities ([6]; 60° C., 10 d): 0.69%
Total impurities ([6]; 90% RH, 1 M): 0.96%
Total impurities ([6]; 90% RH, 10 d): 0.73%
Total impurities ([6]; Illumination, 5 d): 0.86%
Appearance ([6]; Illumination, 5 d and 10 d): Color deepening
Total impurities ([6]; Illumination, 10 d): 0.98%

Maleate
Solubility ([7]; FaSSIF-V2, 2 h): 0.02 mg/mL
Solubility ([7]; FaSSIF-V2, 24 h): <LOQ
Solubility ([7]; FeSSIF-V2, 2 h): 0.22 mg/mL
Solubility ([7]; FeSSIF-V2, 24 h): 0.22 mg/mL
Solubility ([7]; SGF, 2 h): 1.39 mg/mL
Solubility ([7]; SGF, 24 h): 1.92 mg/mL
Solubility ([7]; Water, 2 h): 0.02 mg/mL
Solubility ([7]; Water, 24 h): 0.02 mg/mL
XRPD results of residual solids [8]: Crystal form A
